Legend:
Type in all cases: cell-based
MDA-MB-231 (breast) = assay: In vitro cell proliferation assay (SRB), MDA-MB-231; details: Homo sapiens, SRB method, 96 hours, read-out: Inhibition of cell growth (IC50, μM) MDA-MB-231
Description: (§1) Cancer cell lines to determine the effect of 5, 6, or 7-substituted-3-(hetero)arylisoquinolinamine compounds were obtained from the following sources: Human MDA-MB-231 (breast), PC3 (prostate), HCT-15 (colon), HCT116 (colon), OVCAR-3 (ovary), Caki-1 (kidney), PANC-1 (pancreas), SNB-19 (glioblastoma) and SK-MEL-28 (melanoma) from the American Type Culture Collection (ATCC) (Manassas, Va.). PC3, OVCAR-3, SK-MEL-28 and SNB-19 were grown in RPMI1640 medium (Invitrogen, Carlsbad, Calif.) supplemented with 10% fetal bovine serum (“FBS”), 1 mM sodium pyruvate, 10 mM HEPES and 100 U/ml penicillin and 100 μg/ml streptomycin (“P/S”). MDA-MB-231, Caki-1, HCT-15 (colon) and PANC-1 cells were maintained in Dulbecco's modified Eagle's medium (“DMEM”, Invitrogen) supplemented with 10% FBS, P/S and 10 mM HEPES. HCT116 cells were maintained in DMEM supplemented with 10% FBS, P/S and 10 mM HEPES for in vitro cell proliferation assay and in RPMI1640 medium supplemented with 10% FBS, 1 mM sodium pyruvate, 10 mM HEPES and P/S for in vitro cell cycle analysis. All cells were incubated at 37° C. under humidified 5% CO2.
(§2) The growth inhibition of the 5, 6, or 7-substituted-3-(hetero)arylisoquinolinamine derivatives against a variety of human tumor cells was evaluated to study the relative importance of particular substituent groups on the compounds. The 5, 6, or 7-substituted-3-(hetero)arylisoquinolinamine derivatives, prepared as described above, were tested with DMSO as a control.
(§3) The growth inhibition assay of representative 5, 6, or 7-substituted-3-(hetero)arylisoquinolinamine derivatives against human tumor cell lines was performed using the Sulforhodamine B (“SRB”) method (Skehan et al., J. National Cancer Institute, 82: 1107-1112 (1990)). Briefly, exponentially growing tumor cells were seeded into a 96-well plate at a density of 2-3×10^3 cells/well and treated with 5, 6, or 7-substituted-3-(hetero)arylisoquinolinamine compounds the next day. Triplicate wells were used for each treatment. The cells were incubated with the various compounds for 96 hours at 37° C. in a humidified 5% CO2 atmosphere. After 96-hour incubation, cells were fixed with 10% trichloroacetic acid (“TCA”), incubated for 1 hour at 4° C., and washed 3 times with tap water. Subsequently, cells were stained with 0.4% sulforhodamine B in 1% acetic acid for 30 minutes, washed 4 times with 1% acetic acid, and air-dried again. After 5 minutes agitation in 10 mM Tris solution, the absorbance of each well was measured at 530 nm using Benchmark Plus Microplate reader (Bio-Rad Laboratories, Hercules, Calif.).
(§4) To translate the OD530 values into the number of live cells in each well, the OD530 values were compared to those on standard OD530-versus-cell number curves generated for each cell line. The percent survival was calculated using the formula: % Survival=live cell number [test]/live cell number [control]×100
(§5) The IC50 values were calculated by non-linear regression analysis.

PANC-1 (pancreas) = assay: In vitro cell proliferation assay (SRB), PANC-1; details: Homo sapiens, SRB method, 96 hours, read-out: Inhibition of cell growth (IC50, μM) PANC-1
Description: as §1, §2, §3, §4, §5

HCT116 (colon) = assay: In vitro cell proliferation assay (SRB), HCT116; details: Homo sapiens, HCT-116; SRB method, 96 hours; Table 3; read-out: Inhibition of cell growth (IC50, μM) HCT116
Description: as §1, §2, §3, §4, §5

PC3 (prostate) = assay: In vitro cell proliferation assay (SRB), PC3; details: Homo sapiens; SRB method, 96 hours; read-out: Inhibition of cell growth (IC50, μM) PC3
Description: as §1, §2, §3, §4, §5

OVCAR-3 (ovary) = assay: In vitro cell proliferation assay (SRB), OVCAR3; details: Homo sapiens, SRB method, 96 hours, read-out: Inhibition of cell growth (IC50, μM) OVCAR3
Description: as §1, §2, §3, §4, §5

SK-MEL-28 (melanoma) = assay: In vitro cell proliferation assay (SRB), SK-MEL-28; details: Homo sapiens, SRB method, 96 hours, read-out: Inhibition of cell growth (IC50, μM) SK-MEL-28
Description: as §1, §2, §3, §4, §5

Caki-1 (kidney) = assay: In vitro cell proliferation assay (SRB), Caki-1; details: Homo sapiens, SRB method, 96 hours, read-out: Inhibition of cell growth (IC50, μM) Caki-1
Description: as §1, §2, §3, §4, §5

SNB-19 (glioblastoma) = assay: In vitro cell proliferation assay (SRB), SNB19; details: Homo sapiens, SRB method, 96 hours, read-out: Inhibition of cell growth (IC50, μM) SNB19
Description: as §1, §2, §3, §4, §5

human cancer cell lines = assay: Growth inhibition against the panel of human tumor cell lines (SRB), overall statements; details: Table 3 cell lines
Description: as §1, §2, §3, §4, §5
Using QSAR and medicinal chemistry techniques, a large number of compounds, including the compounds shown in Table 1-2 above, were synthesized. The synthesized compounds were screened against at least four cancer cell lines, PANC-1, MDA-MB-231, HCT116 and Caki-1, at approximately 1 μM concentration. Compounds showing activity in at least one of these cell lines were selected for further screening. From these compounds, thirty compounds were selected for further evaluation as broad-spectrum anti-proliferative agents as shown in the following Table 3.

Compound | IC50 (MDA-MB-231 (breast)) [µM] | IC50 (PANC-1 (pancreas)) [µM] | IC50 (HCT116 (colon)) [µM] | IC50 (PC3 (prostate)) [µM] | IC50 (OVCAR-3 (ovary)) [µM] | IC50 (SK-MEL-28 (melanoma)) [µM] | IC50 (SNB-19 (glioblastoma)) [µM] | IC50 (Caki-1 (kidney)) [µM] | activity in growth inhibition of human cancer cell compared to Compound 23 (human cancer cell lines)
COc1ccc(-c2cc3ccc(N(C)C)cc3c(N)n2)cc1OC.Cl [Compound 15, 3-(3,4-Dimethoxyphenyl)-N^7,N^7-dimethylisoquinoline-1,7-diamine hydrochloride] | 0.15 | 0.19 | 0.18 | 0.23 | 0.14 | 0.33 | 0.25 | 0.17 | equal or better activity
COc1cc(OC)cc(-c2cc3ccc(N(C)C)cc3c(N)n2)c1.Cl [Compound 16, 3-(3,5-Dimethoxyphenyl)-N^7,N^7-dimethylisoquinoline-1,7-diamine hydrochloride] | 0.027 | 0.026 | 0.029 | 0.048 | 0.025 | 0.045 | 0.057 | 0.038 | equal or better activity
COc1cccc(-c2cc3cc(N(C)C)ccc3c(N)n2)c1 [Compound 21, 3-(3-Methoxyphenyl)-N^6,N^6-dimethyl-isoquinoline-1,6-diamine] | 0.059 | 0.11 | 0.064 | 0.19 | 0.071 | 0.11 | 0.094 | 0.068 | equal or better activity
COc1cccc(-c2cc3cc(C)ccc3c(N)n2)c1 [Compound 25, 3-(3-Methoxyphenyl)-6-methylisoquinolin-1-amine] | 0.14 | 0.31 | 0.19 | 0.25 | 0.18 | 0.34 | 0.29 | 0.13 | equal or better activity
Cc1ccc2c(N)nc(-c3ccc4c(c3)OCO4)cc2c1 [Compound 28, 3-(Benzo[d][1,3]dioxol-6-yl)-6-methylisoquinolin-1-amine] | 0.13 | 0.22 | 0.16 | 0.19 | 0.16 | 0.22 | 0.23 | 0.11 | equal or better activity
Cc1ccc2cc(-c3ccc4c(c3)OCO4)nc(N)c2c1 [Compound 45, 3-(Benzo[d][1,3]dioxol-6-yl)-7-methylisoquinolin-1-amine] | 0.15 | 0.37 | 0.18 | 0.25 | 0.23 | 0.42 | 0.38 | 0.13 | equal or better activity
COc1cc2cc(-c3c(C)cccc3C)nc(N)c2cc1OC [Compound 53, 6,7-Dimethoxy-3-(2,6-dimethylphenyl)isoquinolin-1-amine] | 0.25 | 0.54 | 0.79 | 0.68 | 0.16 | 0.63 | 0.42 | 0.53 | 
COc1cc2cc(-c3cccc(C)c3)nc(N)c2cc1OC [Compound 54, 6,7-Dimethoxy-3-m-tolylisoquinolin-1-amine] | 0.79 | 2.27 | 2.32 | 2.5 | 0.58 | 1.12 | 1.56 | 1.78 | 
COc1cc(OC)cc(-c2cc3cc(OC)c(OC)cc3c(N)n2)c1 [Compound 55, 6,7-Dimethoxy-3-(3,5-dimethoxyphenyl)isoquinolin-1-amine] | 0.4 | 0.7 | 0.77 | 0.72 | 0.19 | 0.69 | 0.4 | 0.54 | 

Second part, led by results:

IC50 (MDA-MB-231 (breast)) [µM] | IC50 (PANC-1 (pancreas)) [µM] | IC50 (HCT116 (colon)) [µM] | IC50 (PC3 (prostate)) [µM] | IC50 (OVCAR-3 (ovary)) [µM] | IC50 (SK-MEL-28 (melanoma)) [µM] | IC50 (SNB-19 (glioblastoma)) [µM] | Compound | IC50 (Caki-1 (kidney)) [µM] | activity in growth inhibition of human cancer cell compared to Compound 23 (human cancer cell lines)
0.11 | 0.17 | 0.14 | 0.26 | 0.071 | 0.14 | 0.19 | Cc1ccc(Cl)cc1-c1cc2ccc(Cl)cc2c(N)n1 [Compound 10, 7-chloro-3-(5-chloro-2-methylphenyl)isoquinolin-1-amine] | 0.15 | equal or better activity
0.15 | 0.24 | 0.17 | 0.25 | 0.17 | 0.29 | 0.28 | COc1ccc(-c2cc3cc(C)ccc3c(N)n2)c(C)c1 [Compound 31, 3-(4-Methoxy-2-methylphenyl)-6-methylisoquinolin-1-amine] | 0.12 | equal or better activity
0.14 | 0.21 | 0.17 | 0.24 | 0.16 | 0.23 | 0.24 | Cc1ccc2c(N)nc(-c3c(C)cccc3C)cc2c1 [Compound 34, 6-Methyl-3-(2,6-dimethylphenyl)isoquinolin-1-amine] | 0.12 | equal or better activity
0.15 | 0.2 | 0.18 | 0.22 | 0.15 | 0.25 | 0.21 | Cc1ccc(-c2cc3cc(C)ccc3c(N)n2)cc1 [Compound 36, 6-Methyl-3-p-tolylisoquinolin-1-amine] | 0.16 | equal or better activity
0.079 | 0.18 | 0.12 | 0.2 | 0.13 | 0.21 | 0.2 | COc1ccc(-c2cc3ccc(C)cc3c(N)n2)c(C)c1 [Compound 42, 3-(4-Methoxy-2-methylphenyl)-7-methylisoquinolin-1-amine] | 0.065 | equal or better activity
0.075 | 0.2 | 0.12 | 0.26 | 0.1 | 0.18 | 0.16 | Cc1ccc2cc(-c3ccccc3C)nc(N)c2c1 [Compound 48, 7-Methyl-3-o-tolylisoquinolin-1-amine] | 0.14 | equal or better activity
0.54 | 0.83 | 0.78 | 1.25 | 0.38 | 0.91 | 0.56 | COc1cc2cc(-c3ccccc3C)nc(N)c2cc1OC [Compound 56, 6,7-Dimethoxy-3-o-tolylisoquinolin-1-amine] | 0.67 | 

From patent US8314123B2, “5, 6, or 7-substituted -3-(hetero) arylisoquinolinamine derivatives and therapeutic use thereof” (Rexahn Pharmaceuticals, Inc., priority 2006, dated 2012)
